According to ChEMBL document CHEMBL5712891, “Inhibition of BET bromodomain-dependent XIAP and FLIP expression sensitizes KRAS-mutated NSCLC to pro-apoptotic agents” (Cell Death Dis, 2016):
Active and inactive are the calls of the source. The calls are words filed in the database; no cut-off is given here.

Key:
NCI-H460 [1] = test: Induction of cell cycle arrest in human NCI-H460 cells assessed as accumulation of cells at S phase at 0.25 uM for 24 hrs by Click-iT EdU Alexa Fluor 647 flow cytometric assay kit analysis (reference value: 54%); assay type: functional
DV-90 [2] = test: Induction of cell cycle arrest in human DV-90 cells assessed as accumulation of cells at S phase at 0.25 uM for 24 hrs by Click-iT EdU Alexa Fluor 647 flow cytometric assay kit analysis (reference value: 30%); assay type: functional
DV-90 [3] = test: Induction of cell cycle arrest in human DV-90 cells assessed as accumulation of cells at S phase at 0.5 uM for 24 hrs by Click-iT EdU Alexa Fluor 647 flow cytometric assay kit analysis (reference value: 30%); assay type: functional
NCI-H460 [4] = test: Induction of cell cycle arrest in human NCI-H460 cells assessed as accumulation of cells at S phase at 1 uM for 24 hrs by Click-iT EdU Alexa Fluor 647 flow cytometric assay kit analysis (reference value: 54%); assay type: functional
DV-90 [5] = test: Induction of cell cycle arrest in human DV-90 cells assessed as accumulation of cells at G2/M phase at 0.1 uM for 24 hrs by Click-iT EdU Alexa Fluor 647 flow cytometric assay kit analysis (reference value: 25%); assay type: functional
DV-90 [6] = test: Induction of cell cycle arrest in human DV-90 cells assessed as accumulation of cells at G2/M phase at 1 uM for 24 hrs by Click-iT EdU Alexa Fluor 647 flow cytometric assay kit analysis (reference value: 25%); assay type: functional
NCI-H1373 [7] = test: Induction of cell cycle arrest in human NCI-H1373 cells assessed as accumulation of cells at G0/G1 phase at 0.5 uM for 24 hrs by Click-iT EdU Alexa Fluor 647 flow cytometric assay kit analysis (reference value: 45%); assay type: functional
NCI-H460 [8] = test: Downregulation of XIAP protein expression level in human NCI-H460 cells at 1 uM for 24 hrs by […] analysis; assay type: functional, cell-based
NCI-H1373 [9] = test: Induction of apoptosis in human NCI-H1373 cells assessed as late apoptotic cells at 0.5 uM for 24 hrs by annexin V-PI staining based flow cytometric analysis (reference value: 16.2%); assay type: functional
NCI-H2030 [10] = test: Downregulation of c-MYC mRNA expression level in human NCI-H2030 cells at 0.1 to 1 uM for 24 hrs by qRT-PCR analysis; assay type: functional, cell-based; details: dose 0.1-1 µM
A549 [11] = test: Induction of cell cycle arrest in human A549 cells assessed as accumulation of cells at S phase at 0.1 uM for 24 hrs by Click-iT EdU Alexa Fluor 647 flow cytometric assay kit analysis (reference value: 35%); assay type: functional
NCI-H460 [12] = test: Downregulation of XIAP mRNA expression level in human NCI-H460 cells at 0.1 to 1 uM for 24 hrs by qRT-PCR analysis; assay type: functional, cell-based; details: dose 0.1-1 µM
NCI-H1373 [13] = test: Induction of TRAIL dependent apoptosis in human NCI-H1373 cells assessed as late apoptotic cells at 1 uM by annexin V-PI staining based flow cytometric analysis (reference value: 8.3%); assay type: functional
NCI-H1792 = test: Downregulation of FLIP mRNA expression level in human NCI-H1792 cells at 0.1 to 1 uM for 24 hrs by qRT-PCR analysis; assay type: functional, cell-based; details: dose 0.1-1 µM
NCI-H2030 [14] = test: Downregulation of c-MYC protein expression level in human NCI-H2030 cells at 1 uM for 24 hrs by […] analysis; assay type: functional, cell-based
NCI-H460 [15] = test: Antiproliferative activity against human NCI-H460 cells at 500 to 2500 nM in presence of TNF by cell titre glo assay; assay type: functional, cell-based; details: dose 500-2500 nM
NCI-H1373 [16] = test: Induction of cell cycle arrest in human NCI-H1373 cells assessed as accumulation of cells at S phase at 1 uM for 24 hrs by Click-iT EdU Alexa Fluor 647 flow cytometric assay kit analysis (reference value: 45%); assay type: functional
A549 [17] = test: Induction of cell cycle arrest in human A549 cells assessed as accumulation of cells at S phase at 0.5 uM for 24 hrs by Click-iT EdU Alexa Fluor 647 flow cytometric assay kit analysis (reference value: 35%); assay type: functional
NCI-H2030 [18] = test: Antiproliferative activity against human NCI-H2030 cells at 500 to 2500 nM in presence of TNF by cell titre glo assay; assay type: functional, cell-based; details: dose 500-2500 nM
NCI-H23 = test: Downregulation of FLIP mRNA expression level in human NCI-H23 cells at 0.1 to 1 uM for 24 hrs by qRT-PCR analysis; assay type: functional, cell-based; details: dose 0.1-1 µM
NCI-H1373 [19] = test: Downregulation of c-MYC protein expression level in human NCI-H1373 cells at 1 uM for 24 hrs by […] analysis; assay type: functional, cell-based
DV-90 [20] = test: Induction of apoptosis in human DV-90 cells assessed as early apoptotic cells at 2.5 uM for 24 hrs by annexin V-PI staining based flow cytometric analysis (reference value: 1.7%); assay type: functional
HFF-1 = test: Cytotoxicity against HFF-1 cells at 500 to 2500 nM in presence of TNF by cell titre glo assay; assay type: toxicity, cell-based; details: human, hff-1, 2.5 µM; dose 500-2500 nM
A549 [21] = test: Induction of apoptosis in human A549 cells assessed as early apoptotic cells at 1 uM in presence of cisplatin by annexin V-PI based flow cytometric analysis (reference value: 0.2%); assay type: functional
NCI-H2347 = test: Downregulation of c-MYC mRNA expression level in human NCI-H2347 cells at 0.1 to 1 uM for 24 hrs by qRT-PCR analysis; assay type: functional, cell-based; details: dose 0.1-1 µM
A549 [22] = test: Induction of apoptosis in human A549 cells assessed as necrotic cells at 2.5 uM for 24 hrs by annexin V-PI staining based flow cytometric analysis (reference value: 1.3%); assay type: functional
A549 [23] = test: Induction of apoptosis in human A549 cells assessed as necrotic cells at 1 uM by annexin V-PI based flow cytometric analysis (reference value: 1.6%); assay type: functional
DV-90 [24] = test: Induction of apoptosis in human DV-90 cells assessed as late apoptotic cells at 2.5 uM for 24 hrs by annexin V-PI staining based flow cytometric analysis (reference value: 8.7%); assay type: functional
NCI-H1373 [25] = test: Induction of apoptosis in human NCI-H1373 cells assessed as early apoptotic cells at 2.5 uM for 24 hrs by annexin V-PI staining based flow cytometric analysis (reference value: 1.7%); assay type: functional
DV-90 [26] = test: Induction of apoptosis in human DV-90 cells assessed as viable cells at 0.5 uM for 48 hrs by annexin V-PI staining based flow cytometric analysis (reference value: 81.9%); details: DV-90, 48 h
NCI-H460 [27] = test: Induction of apoptosis in human NCI-H460 cells assessed as necrotic cells at 2.5 uM for 24 hrs by annexin V-PI staining based flow cytometric analysis (reference value: 3.2%); assay type: functional
DV-90 [28] = test: Induction of cell cycle arrest in human DV-90 cells assessed as accumulation of cells at G0/G1 phase at 1 uM for 24 hrs by Click-iT EdU Alexa Fluor 647 flow cytometric assay kit analysis (reference value: 47%); assay type: functional
NCI-H1373 [29] = test: Induction of apoptosis in human NCI-H1373 cells assessed as necrotic cells at 0.5 uM for 24 hrs by annexin V-PI staining based flow cytometric analysis (reference value: 4.4%); assay type: functional

Molecule `CCNC(=O)C[C@@H]1N=C(c2ccc(Cl)cc2)c2cc(OC)ccc2-n2c(C)nnc21` [MOLIBRESIB] has an Activity (NCI-H460 [1]) of 56%, an Activity (DV-90 [2]) of 22% and an Activity (DV-90 [3]) of 25%. The Activity (NCI-H460 [4]) was 47%, the Activity (DV-90 [5]) was 31% and the Activity (DV-90 [6]) was 27%. The Activity (NCI-H1373 [7]) was 47%.

In the case of `Cc1sc2c(c1C)C(c1ccc(Cl)cc1)=N[C@@H](CC(=O)OC(C)(C)C)c1nnc(C)n1-2`, the Activity (NCI-H460 [8]) is reported as “Active”, the Activity (NCI-H1373 [9]) is reported as 20.2% and the Activity (NCI-H2030 [10]) is reported as “Active”. For the same molecule, the Activity (A549 [11]) was 36%, the Activity (NCI-H460 [12]) was “Active” and the Activity (NCI-H1373 [13]) was 14%. The Activity (NCI-H1792) was “Active”, the Activity (NCI-H2030 [14]) was “Active” and the Activity (NCI-H460 [15]) was “Active”. The Activity (NCI-H1373 [16]) was 7%, the Activity (A549 [17]) was 33% and the Activity (NCI-H2030 [18]) was “Active”. For the same molecule, the Activity (NCI-H23) was “Active”, the Activity (NCI-H1373 [19]) was “Active” and the Activity (DV-90 [20]) was 1.9%. The Activity (HFF-1) was “Non-Toxic”, the Activity (A549 [21]) was 2.2% and the Activity (NCI-H2347) was “Active”. For the same molecule, the Activity (A549 [22]) was 0.9% and the Activity (A549 [23]) was 0.6%.

For `Cc1sc2c(c1C)C(c1ccc(Cl)cc1)=N[C@@H](CC(=O)Nc1ccc(O)cc1)c1nnc(C)n1-2` [BIRABRESIB], the Activity (DV-90 [24]) was 13.5%, the Activity (NCI-H1373 [25]) was 1.8% and the viability at 0.5 µM (DV-90 [26]) was 57.6%. For the same molecule, the Activity (NCI-H460 [27]) was 3.9%, the Activity (DV-90 [28]) was 60% and the Activity (NCI-H1373 [29]) was 9.6%.
